Results as given in patent US10125148B2, “Pyrazolopyrimidine macrocycles as inhibitors of human immunodeficiency virus replication” (priority 2014, dated 2018).
Where two headings read alike, the source gives them in different places.

Columns and labels:
[1] = rcm bond
[2] = from C=CCOC1(C)CCN(c2c([C@H](OC(C)(C)C)C(=O)OC)c(C)nc3cc(-c4cccc(-c5cc(CC)ccc5O[C@@H](C)CC=C)c4)nn23)CC1; rcm bond; 20-membered ring; Hoveyda-Grubbs II (name truncated)/CuI; DCE; 1.09 mM; 3.0 h
NL-RLuc virus = assay: Inhibition of HIV replication (NL-RLuc luciferase reporter virus in MT-2 cells); assay type: cell-based; conditions: Human immunodeficiency virus 1, MT2, 120 h

CCOC(=O)[C@@H](OC(C)(C)C)c1c(C)nc2cc3nn2c1N1CCC(C)(CC1)OC/C=C/C(C)Oc1cc(F)ccc1-c1cccc-3c1 (some centres unmarked)
ring closure, isolated yield ([1]; from C=CCOC1(C)CCN(c2c([C@H](OC(C)(C)C)C(=O)OCC)c(C)nc3cc(-c4cccc(-c5ccc(F)cc5O[C@@H](C)C=C)c4)nn23)CC1, 19-membered ring, Grubbs II (0.1 eq)/CuI, DCE, 1.27 mM, 2.0 h): 96%

CCOC(=O)[C@@H](OC(C)(C)C)c1c(C)nc2cc3nn2c1N1CCC(C)(CC1)OC/C=C/[C@H](C)Oc1cc(C)cc(F)c1-c1cccc-3c1
ring closure, isolated yield ([1]; from C=CCOC1(C)CCN(c2c([C@H](OC(C)(C)C)C(=O)OCC)c(C)nc3cc(-c4cccc(-c5c(F)cc(C)cc5O[C@@H](C)C=C)c4)nn23)CC1, 19-membered ring, Grubbs II (0.1 eq)/CuI, DCE, 1.09 mM, 2.0 h): 72%

CCOC(=O)[C@@H](OC(C)(C)C)c1c(C)nc2cc3nn2c1N1CCC(C)(CC1)OC/C=C/[C@H](C)Oc1cc(C)ccc1-c1cccc-3c1
ring closure, isolated yield ([1]; from C=CCOC1(C)CCN(c2c([C@H](OC(C)(C)C)C(=O)OCC)c(C)nc3cc(-c4cccc(-c5ccc(C)cc5O[C@@H](C)C=C)c4)nn23)CC1, 19-membered ring, Grubbs II (0.1 eq)/CuI, DCE, 1.32 mM, 2.0 h): 69.5%

CCOC(=O)[C@@H](OC(C)(C)C)c1c(C)nc2cc3nn2c1N1CCC(C)(CC1)OC/C=C/[C@H](C)Oc1ccc(C)c(F)c1-c1cccc-3c1
ring closure, isolated yield ([1]; from C=CCOC1(C)CCN(c2c([C@H](OC(C)(C)C)C(=O)OCC)c(C)nc3cc(-c4cccc(-c5c(O[C@@H](C)C=C)ccc(C)c5F)c4)nn23)CC1, 19-membered ring, Grubbs II (0.1 eq)/CuI, DCE, 1.33 mM, 2.0 h): 94%

CCOC(=O)[C@@H](OC(C)(C)C)c1c(C)nc2cc3nn2c1N1CCC(C)(CC1)OC/C=C/[C@H](C)Oc1ccc(F)cc1-c1cccc-3c1
ring closure, isolated yield ([1]; from C=CCOC1(C)CCN(c2c([C@H](OC(C)(C)C)C(=O)OCC)c(C)nc3cc(-c4cccc(-c5cc(F)ccc5O[C@@H](C)C=C)c4)nn23)CC1, 19-membered ring, Grubbs II (0.1 eq)/CuI, DCE, 1.36 mM, 2.0 h): 67.3%

CCOC(=O)[C@@H](OC(C)(C)C)c1c(C)nc2cc3nn2c1N1CCC(C)(CC1)OCC=CC[C@H](C)Oc1ccc(C(=O)OC)cc1-c1cccc-3c1
ring closure, isolated yield ([1]; from C=CCOC1(C)CCN(c2c([C@H](OC(C)(C)C)C(=O)OCC)c(C)nc3cc(-c4cccc(-c5cc(C(=O)OC)ccc5O[C@@H](C)CC=C)c4)nn23)CC1, 20-membered ring, Hoveyda-Grubbs II (0.1 eq)/CuI, DCE, 1.52 mM, 80.0 °C, 3.0 h): 83%

CCc1ccc2c(c1)-c1cccc(c1)-c1cc3nc(C)c([C@H](OC(C)(C)C)C(=O)OC)c(n3n1)N1CCC(C)(CC1)OCC=CC[C@H](C)O2
ring closure, crude yield [2]: 92%

COC(=O)[C@@H](OC(C)(C)C)c1c(C)nc2cc3nn2c1N1CCC(C)(CC1)OC/C=C/C[C@H](C)Oc1cc(C)cc(F)c1-c1cccc-3c1
ring closure, isolated yield ([1]; from C=CCOC1(C)CCN(c2c([C@H](OC(C)(C)C)C(=O)OC)c(C)nc3cc(-c4cccc(-c5c(F)cc(C)cc5O[C@@H](C)CC=C)c4)nn23)CC1, 20-membered ring, Ru-SIMes catalyst (name truncated), 3.0 h): 78%

COC(=O)[C@@H](OC(C)(C)C)c1c(C)nc2cc3nn2c1N1CCC(C)(CC1)OCC=CC[C@H](C)Oc1cc(F)cc(F)c1-c1cccc-3c1
ring closure, isolated yield ([1]; from C=CCOC1(C)CCN(c2c([C@H](OC(C)(C)C)C(=O)OC)c(C)nc3cc(-c4cccc(-c5c(F)cc(F)cc5O[C@@H](C)CC=C)c4)nn23)CC1, 20-membered ring, Hoveyda-Grubbs II (2 x 0.05 eq), toluene, 1.26 mM, 80.0 °C, 3.0 h): 48%

Cc1cc(F)c2c(c1)O[C@@H](C)/C=C/COC1(C)CCN(CC1)c1c([C@H](OC(C)(C)C)C(=O)O)c(C)nc3cc(nn13)-c1cccc-2c1 [Example 17, (2S)-2-(tert-Butoxy)-2-[(22S,23E)-16-fluoro-4,18,22,27-tetramethyl-21,26-dioxa-1,5,7,8-tetraazahexacyclo[25.2.2.1^6,9.1^10,14.0^2,7.0^15,20]tritriaconta-2,4,6(33),8,10(32),11,13,15(20),16,18,23-undecaen-3-yl]acetic acid]
EC50 (NL-RLuc virus): 9 nM

Cc1cc(F)c2c(c1)O[C@@H](C)CCCOC1(C)CCN(CC1)c1c([C@H](OC(C)(C)C)C(=O)O)c(C)nc3cc(nn13)-c1cccc-2c1 [Example 18, (2S)-2-(tert-Butoxy)-2-[(22S)-16-fluoro-4,18,22,27-tetramethyl-21,26-dioxa-1,5,7,8-tetraazahexacyclo[25.2.2.1^6,9.1^10,14.0^2,7.0^15,20]tritriaconta-2,4,6(33),8,10(32),11,13,15(20),16,18-decaen-3-yl]acetic acid]
EC50 (NL-RLuc virus): 7 nM

Cc1ccc2c(c1)-c1cccc(c1)-c1cc3nc(C)c([C@H](OC(C)(C)C)C(=O)O)c(n3n1)N1CCC(C)(CC1)O/C=C\CC[C@H](C)O2 [Example 19, (2S)-2-(tert-Butoxy)-2-[(22S,25Z)-4,17,22,28-tetramethyl-21,27-dioxa-1,5,7,8-tetraazahexacyclo[26.2.2.1^6,9.1^10,14.0^2,7.0^15,20]tetratriaconta-2,4,6(34),8,10(33),11,13,15(20),16,18,25-undecaen-3-yl]acetic acid]
EC50 (NL-RLuc virus): 33 nM

Cc1ccc2c(c1)-c1cccc(c1)-c1cc3nc(C)c([C@H](OC(C)(C)C)C(=O)O)c(n3n1)N1CCC(C)(CCCCC[C@H](C)O2)CC1 [Example 21, (2S)-2-(tert-Butoxy)-2-[(22S)-4,17,22,28-tetramethyl-21-oxa-1,5,7,8-tetraazahexacyclo[26.2.2.1^6,9.1^10,14.0^2,7.0^15,20]tetratriaconta-2,4,6(34),8,10(33),11,13,15(20),16,18-decaen-3-yl]acetic acid]
EC50 (NL-RLuc virus): 150 nM

Cc1nc2cc3nn2c(c1[C@H](OC(C)(C)C)C(=O)O)N1CCC(C)(CC1)OCCCC[C@H](C)Oc1ccc(C(=O)NCCC(C)(C)C)cc1-c1cccc-3c1 [Example 25, (2S)-2-(tert-Butoxy)-2-[(22S)-17-[(3,3-dimethylbutyl)carbamoyl]-4,22,28-trimethyl-21,27-dioxa-1,5,7,8-tetraazahexacyclo[26.2.2.1^6,9.1^10,14.0^2,7.0^15,20]tetratriaconta-2,4,6(34),8,10(33),11,13,15(20),16,18-decaen-3-yl]acetic acid]
EC50 (NL-RLuc virus): 4 nM

Cc1nc2cc3nn2c(c1[C@H](OC(C)(C)C)C(=O)O)N1CCC(C)(CC1)OCCCC[C@H](C)Oc1cc(F)ccc1-c1ccc(F)c-3c1 [Example 26, (2S)-2-(tert-Butoxy)-2-[(22S)-11,18-difluoro-4,22,28-trimethyl-21,27-dioxa-1,5,7,8-tetraazahexacyclo[26.2.2.1^6,9.1^10,14.0^2,7.0^15,20]tetratriaconta-2,4,6(34),8,10(33),11,13,15(20),16,18-decaen-3-yl]acetic acid]
EC50 (NL-RLuc virus): 49 nM

Cc1nc2cc3nn2c(c1[C@H](OC(C)(C)C)C(=O)O)N1CCC(C)(CC1)OCCCC[C@H](C)Oc1cc(F)ccc1-c1cc(F)cc-3c1 [Example 27, (2S)-2-(tert-Butoxy)-2-[(22S)-12,18-difluoro-4,22,28-trimethyl-21,27-dioxa-1,5,7,8-tetraazahexacyclo[26.2.2.1^6,9.1^10,14.0^2,7.0^15,20]tetratriaconta-2,4,6(34),8,10(33),11,13,15(20),16,18-decaen-3-yl]acetic acid]
EC50 (NL-RLuc virus): 45 nM

Cc1nc2cc3nn2c(c1[C@H](OC(C)(C)C)C(=O)O)N1CCC(C)(CC1)OCCCC[C@H](C)Oc1cc(F)ccc1-c1cc-3ccc1F [Example 28, (2S)-2-(tert-Butoxy)-2-[(22S)-13,18-difluoro-4,22,28-trimethyl-21,27-dioxa-1,5,7,8-tetraazahexacyclo[26.2.2.1^6,9.1^10,14.0^2,7.0^15,20]tetratriaconta-2,4,6(34),8,10(33),11,13,15(20),16,18-decaen-3-yl]acetic acid]
EC50 (NL-RLuc virus): 27 nM
